Results: ChEMBL document CHEMBL6083262, “Stereorandomized Oncocins with Preserved Ribosome Binding and Antibacterial Activity” (J Med Chem, 2024)
Values after ≈ are worked out from the molar mass of the structure shown. Active and inactive are the calls of the source. The calls are words filed in the database; no cut-off is given here. Non-standard residues stand in square brackets, D forms with d. Residues, ends and D or L forms follow the SMILES beside them. ξ: configuration not given here. ξY = NC(Cc1ccc(O)cc1)C(=O)O; ξR = N=C(N)NCCCC(N)C(=O)O; ξD = NC(CC(=O)O)C(=O)O; ξN = NC(=O)CC(N)C(=O)O; ξI = CCC(C)C(N)C(=O)O; ξK = NCCCCC(N)C(=O)O; ξV = CC(C)C(N)C(=O)O; ξP = O=C(O)C1CCCN1

Tests used:
Escherichia coli [1] = assay: Antimicrobial activity against Escherichia coli W3110 incubated for 16 to 20 hrs in full muller hinton medium by broth microdilution method; format: functional; details: time 16-20 hrs
Pseudomonas aeruginosa [2] = assay: Antimicrobial activity against Pseudomonas aeruginosa PAO1 incubated for 16 to 20 hrs in full muller hinton medium by broth microdilution method; format: functional; details: time 16-20 hrs
Staphylococcus aureus [3] = assay: Antimicrobial activity against methicillin-resistant Staphylococcus aureus COL incubated for 16 to 20 hrs in full muller hinton medium by broth microdilution method; format: functional; details: time 16-20 hrs
Escherichia coli [4] = assay: Antimicrobial activity against Escherichia coli W3110 incubated for 16 to 20 hrs in 12.5 % muller hinton medium by broth microdilution method; format: functional; details: time 16-20 hrs
Acinetobacter baumannii = assay: Antimicrobial activity against Acinetobacter baumannii ATCC 19606 incubated for 16 to 20 hrs in 12.5 % muller hinton medium by broth microdilution method; format: functional; details: time 16-20 hrs
[5] = Hemolytic activity in human RBC incubated for 4 hrs; format: toxicity, cell-based; details: erythrocyte
Klebsiella pneumoniae [6] = assay: Antimicrobial activity against Klebsiella pneumoniae NCTC 418 incubated for 16 to 20 hrs in full muller hinton medium by broth microdilution method; format: functional; details: time 16-20 hrs
Staphylococcus aureus [7] = assay: Antimicrobial activity against methicillin-resistant Staphylococcus aureus COL incubated for 16 to 20 hrs in 12.5 % muller hinton medium by broth microdilution method; format: functional; details: time 16-20 hrs
rRNA = assay: Binding affinity to [gamma32 P-ATP] labeled Escherichia coli MG1655 23S ribosomal RNA (5-CCCTTGGGACCTACTTC-3') at U2506 position assessed as increase in band intensity at 1 uM incubated for 2.5 hrs in full muller hinton medium by CMCT based gel electrophoresis; format: nucleic-acid assay
Escherichia coli [8] = assay: Bacteriostatic activity against Escherichia coli at 8 times MIC in full muller hinton medium by Time-kill assay; format: functional, organism-based
Klebsiella pneumoniae [9] = assay: Bacteriostatic activity against Klebsiella pneumoniae at 8 times MIC in full muller hinton medium by Time-kill assay; format: functional, organism-based
Escherichia coli [10] = assay: Bacteriostatic activity against Escherichia coli assessed as detachment of inner membrane from outer membrane by measuring a large void at 8 times MIC in full muller hinton medium by transmission electron microscopic analysis; format: functional, organism-based
Klebsiella pneumoniae [11] = assay: Bacteriostatic activity against Klebsiella pneumoniae assessed as detachment of inner membrane from outer membrane by measuring a large void at 8 times MIC in full muller hinton medium by transmission electron microscopic analysis; format: functional, organism-based
Escherichia coli [12] = assay: Bacteriostatic activity against Escherichia coli assessed as small intracellular vesicles at 8 times MIC in full muller hinton medium by transmission electron microscopic analysis; format: functional, organism-based
Klebsiella pneumoniae [13] = assay: Bacteriostatic activity against Klebsiella pneumoniae assessed as small intracellular vesicles at 8 times MIC in full muller hinton medium by transmission electron microscopic analysis; format: functional, organism-based
Escherichia coli [14] = assay: Bacteriostatic activity against Escherichia coli assessed as membrane perturbation at 8 times MIC in full muller hinton medium by transmission electron microscopic analysis; format: functional, organism-based
Klebsiella pneumoniae [15] = assay: Bacteriostatic activity against Klebsiella pneumoniae assessed as membrane perturbation at 8 times MIC in full muller hinton medium by transmission electron microscopic analysis; format: functional, organism-based
Pseudomonas aeruginosa [16] = assay: Antibacterial activity against multidrug-resistant Pseudomonas aeruginosa PA14 incubated for 16 to 20 hrs in full muller hinton medium by broth microdilution method; format: functional; details: time 16-20 hrs
Pseudomonas aeruginosa [17] = assay: Antibacterial activity against multidrug-resistant Pseudomonas aeruginosa PA14 2P4 harboring pmrB mutant incubated for 16 to 20 hrs in full muller hinton medium by broth microdilution method; format: functional; details: time 16-20 hrs
Pseudomonas aeruginosa [18] = assay: Antibacterial activity against multidrug-resistant Pseudomonas aeruginosa clinical isolate ZEM9A incubated for 16 to 20 hrs in full muller hinton medium by broth microdilution method; format: functional; details: time 16-20 hrs
Lipid bilayer [19] = assay: Induction of membrane disruption in egg yolk phosphatidyl glycerol at 10 ug/ml by measuring vesicle leakage; details: dose 10.0 µg/ml
Lipid bilayer [20] = assay: Induction of membrane disruption in egg yolk phosphatidyl choline at 10 ug/ml by measuring vesicle leakage; details: dose 10.0 µg/ml

Row | SMILES | MIC (Escherichia coli [1]) [mg/L] | MIC (Pseudomonas aeruginosa [2]) [mg/L] | MIC (Staphylococcus aureus [3]) [mg/L] | MIC (Escherichia coli [4]) [mg/L] | MIC (Acinetobacter baumannii) [mg/L] | MHC [5] [µg/mL] | other results
1 | CCC(C)C(NC(=O)C(CCCNC(=N)N)NC(=O)[C@H](CCCNC(=N)N)NC(=O)[C@@H]1CCCN1C(=O)[C@@H]1CCCN1C(=O)[C@H](CCCNC(=N)N)NC(=O)[C@@H]1CCCN1C(=O)[C@H](CCCNC(=N)N)NC(=O)[C@@H]1CCCN1C(=O)[C@H](CC(C)C)NC(=O)[C@H](Cc1ccc(O)cc1)NC(=O)[C@@H]1CCCN1C(=O)[C@@H]1CCCN1C(=O)C(CCCCN)NC(=O)C(CC(=O)O)NC(=O)C(N)C(C)C)C(=O)NC(Cc1ccc(O)cc1)C(=O)NC(CC(N)=O)C(=O)NC(CCCNC(=N)N)C(N)=O (stereo partly drawn) (H-[ξV][ξD][ξK]PPYLPRPRPPR[ξR][ξI][ξY][ξN][ξR]-NH2) | 8 (≈ 3.35 µM) | > 64 | > 64 | 1 (≈ 0.418 µM) | 4 (≈ 1.67 µM) | > 1000 | –
2 | CCC(C)C(NC(=O)C(CCCNC(=N)N)NC(=O)C(CCCNC(=N)N)NC(=O)C1CCCN1C(=O)[C@@H]1CCCN1C(=O)[C@H](CCCNC(=N)N)NC(=O)[C@@H]1CCCN1C(=O)[C@H](CCCNC(=N)N)NC(=O)[C@@H]1CCCN1C(=O)[C@H](CC(C)C)NC(=O)[C@H](Cc1ccc(O)cc1)NC(=O)[C@@H]1CCCN1C(=O)[C@@H]1CCCN1C(=O)[C@H](CCCCN)NC(=O)[C@H](CC(=O)O)NC(=O)[C@@H](N)C(C)C)C(=O)NC(Cc1ccc(O)cc1)C(=O)NC(CC(N)=O)C(=O)NC(CCCNC(=N)N)C(N)=O (stereo partly drawn) (H-VDKPPYLPRPRP[ξP][ξR][ξR][ξI][ξY][ξN][ξR]-NH2) | 8 (≈ 3.35 µM) | – | > 64 | 1 (≈ 0.418 µM) | – | > 1000 | MIC (Klebsiella pneumoniae [6]): 4 mg/L (≈ 1.67 µM); MIC (Staphylococcus aureus [7]): > 16 mg/L
3 | CCC(C)C(NC(=O)C(CCCNC(=N)N)NC(=O)C(CCCNC(=N)N)NC(=O)C1CCCN1C(=O)C1CCCN1C(=O)C(CCCNC(=N)N)NC(=O)[C@@H]1CCCN1C(=O)[C@H](CCCNC(=N)N)NC(=O)[C@@H]1CCCN1C(=O)[C@H](CC(C)C)NC(=O)[C@H](Cc1ccc(O)cc1)NC(=O)[C@@H]1CCCN1C(=O)[C@@H]1CCCN1C(=O)[C@H](CCCCN)NC(=O)[C@H](CC(=O)O)NC(=O)[C@@H](N)C(C)C)C(=O)NC(Cc1ccc(O)cc1)C(=O)NC(CC(N)=O)C(=O)NC(CCCNC(=N)N)C(N)=O (stereo partly drawn) (H-VDKPPYLPRP[ξR][ξP][ξP][ξR][ξR][ξI][ξY][ξN][ξR]-NH2) | – | – | > 64 | – | – | > 1000 | Activity (rRNA): Active; Activity (Escherichia coli [8]): Active; Activity (Klebsiella pneumoniae [9]): Active; Activity (Escherichia coli [10]): Active; Activity (Klebsiella pneumoniae [11]): Active; Activity (Escherichia coli [12]): Active; Activity (Klebsiella pneumoniae [13]): Active; Activity (Escherichia coli [14]): Active; Few Membrane Perturbation Observed; Activity (Klebsiella pneumoniae [15]): Active; Few Membrane Perturbation Observed; MIC (Pseudomonas aeruginosa [16]): > 64 mg/L; MIC (Pseudomonas aeruginosa [17]): > 64 mg/L; MIC (Pseudomonas aeruginosa [18]): > 64 mg/L; Activity (Lipid bilayer [19]): Active; Activity (Lipid bilayer [20]): Active
4 | CC[C@H](C)[C@H](NC(=O)[C@H](CCCNC(=N)N)NC(=O)[C@H](CCCNC(=N)N)NC(=O)[C@@H]1CCCN1C(=O)[C@@H]1CCCN1C(=O)[C@H](CCCNC(=N)N)NC(=O)[C@@H]1CCCN1C(=O)[C@H](CCCNC(=N)N)NC(=O)[C@@H]1CCCN1C(=O)[C@H](CC(C)C)NC(=O)[C@H](Cc1ccc(O)cc1)NC(=O)[C@@H]1CCCN1C(=O)[C@@H]1CCCN1C(=O)C(CCCCN)NC(=O)C(CC(=O)O)NC(=O)C(N)C(C)C)C(=O)N[C@@H](Cc1ccc(O)cc1)C(=O)N[C@@H](CC(N)=O)C(=O)N[C@@H](CCCNC(=N)N)C(N)=O (stereo partly drawn) (H-[ξV][ξD][ξK]PPYLPRPRPPRRIYNR-NH2) | – | > 64 | > 64 | 2 (≈ 0.837 µM) | 8 (≈ 3.35 µM) | > 1000 | –
